Tests used:
[1] = Clearance in male Sprague-Dawley rat at 1 mg/kg, iv; assay type: ADME, organism-based; details: in vivo
[2] = Oral bioavailability in male Sprague-Dawley rat at 5 mg/kg, IG; assay type: ADME, organism-based; details: in vivo
[3] = AUC (0 to infinity) in male Sprague-Dawley rat at 1 mg/kg, iv; assay type: ADME, organism-based; details: in vivo
[4] = target: Proto-oncogene tyrosine-protein kinase receptor Ret (Homo sapiens, UniProt P07949, G810C); assay: Inhibition of RET G810C mutant (unknown origin) by FRET-based ZLyte kinase assay
[5] = Half life in male Sprague-Dawley rat at 5 mg/kg, IG; assay type: ADME, organism-based; details: in vivo, po
[6] = Toxicity in mouse allografted with mouse BaF3 cells harbouring KIF5B-RET-wild type assessed as drug tolerance at 10 mg/kg BID measured upto 14 days; assay type: organism-based; details: in vivo, 336 h, time < 14 day
[7] = target: Vascular endothelial growth factor receptor 1 (Homo sapiens, UniProt P17948); assay: Inhibition of FLT1 (unknown origin) by FRET-based Z-Lyte kinase assay
[8] = Apparent volume of distribution in male Sprague-Dawley rat at 5 mg/kg, IG; assay type: ADME, organism-based; details: in vivo, po
[9] = target: Proto-oncogene tyrosine-protein kinase receptor Ret (Homo sapiens, UniProt P07949, M918T); assay: Inhibition of RET M918T mutant (unknown origin) by FRET-based ZLyte kinase assay
[10] = Toxicity in mouse allografted with mouse BaF3 cells harbouring KIF5B-RET G810R mutant assessed as effect on body weight loss at 10 to 30 mg/kg BID measured upto 14 days; assay type: organism-based; details: in vivo, 336 h, dose 10-30 mg/kg, time < 14 day
[11] = Tmax in male Sprague-Dawley rat at 5 mg/kg, IG; assay type: ADME, organism-based; details: in vivo, po
[12] = target: Proto-oncogene tyrosine-protein kinase receptor Ret (Homo sapiens, UniProt P07949); assay: Inhibition of wild type RET (unknown origin) by FRET-based ZLyte kinase assay
[13] = Toxicity in mouse allografted with mouse BaF3 cells harbouring KIF5B-RET-wild type assessed as mortality at 10 mg/kg BID measured upto 14 days; assay type: organism-based; details: in vivo, 336 h, time < 14 day
[14] = Clearance in male Sprague-Dawley rat at 5 mg/kg, IG; assay type: ADME, organism-based; details: in vivo, po
[15] = target: Epithelial discoidin domain-containing receptor 1 (Homo sapiens, UniProt Q08345); assay: Inhibition of DDR1 (unknown origin) by FRET-based Z-Lyte kinase assay
[16] = Toxicity in mouse allografted with mouse BaF3 cells harbouring KIF5B-RET-wild type assessed as effect on body weight loss at 10 mg/kg BID measured upto 14 days; assay type: organism-based; details: in vivo, 336 h, time < 14 day
[17] = Cmax in male Sprague-Dawley rat at 1 mg/kg, iv; assay type: ADME, organism-based; details: in vivo
[18] = target: Proto-oncogene tyrosine-protein kinase receptor Ret (Homo sapiens, UniProt P07949, V804L); assay: Inhibition of RET V804L mutant (unknown origin) by FRET-based ZLyte kinase assay
[19] = Apparent volume of distribution in male Sprague-Dawley rat at 1 mg/kg, iv; assay type: ADME, organism-based; details: in vivo, read-out: Vz
[20] = target: Vascular endothelial growth factor receptor 2 (Homo sapiens, UniProt P35968); assay: Inhibition of KDR (unknown origin) by FRET-based Z-Lyte kinase assay
[21] = target: T1, Receptor-type tyrosine-protein kinase FLT3 (Homo sapiens, UniProt P36888); assay: Inhibition of FLT3 (unknown origin) by FRET-based Z-Lyte kinase assay
T1 sequence (P36888 whole entry): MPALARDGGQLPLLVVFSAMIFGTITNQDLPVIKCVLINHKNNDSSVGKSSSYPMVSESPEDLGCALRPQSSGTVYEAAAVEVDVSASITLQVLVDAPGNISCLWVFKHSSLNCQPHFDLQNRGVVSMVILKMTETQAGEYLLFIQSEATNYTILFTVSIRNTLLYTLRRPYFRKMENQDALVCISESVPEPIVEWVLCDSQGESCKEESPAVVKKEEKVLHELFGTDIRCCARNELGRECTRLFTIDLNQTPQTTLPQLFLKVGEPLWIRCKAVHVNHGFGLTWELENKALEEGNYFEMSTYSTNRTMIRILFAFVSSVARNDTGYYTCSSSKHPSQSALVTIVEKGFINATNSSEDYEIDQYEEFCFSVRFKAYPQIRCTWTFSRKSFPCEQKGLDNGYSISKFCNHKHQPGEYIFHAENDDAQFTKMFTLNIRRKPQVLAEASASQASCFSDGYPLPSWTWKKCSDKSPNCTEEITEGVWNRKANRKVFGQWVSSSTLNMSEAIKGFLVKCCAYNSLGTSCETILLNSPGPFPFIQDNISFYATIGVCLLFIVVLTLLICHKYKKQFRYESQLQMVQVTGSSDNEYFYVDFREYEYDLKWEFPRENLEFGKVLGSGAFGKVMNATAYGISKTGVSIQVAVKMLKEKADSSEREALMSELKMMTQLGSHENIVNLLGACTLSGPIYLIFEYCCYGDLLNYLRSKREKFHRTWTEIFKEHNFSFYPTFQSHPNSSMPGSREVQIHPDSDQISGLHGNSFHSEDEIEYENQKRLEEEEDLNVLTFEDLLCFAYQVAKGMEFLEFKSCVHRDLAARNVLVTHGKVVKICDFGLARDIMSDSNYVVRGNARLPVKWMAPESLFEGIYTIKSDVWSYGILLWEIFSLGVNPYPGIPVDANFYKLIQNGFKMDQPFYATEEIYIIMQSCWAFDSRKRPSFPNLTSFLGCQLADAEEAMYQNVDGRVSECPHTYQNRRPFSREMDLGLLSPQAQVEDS

[22] = Toxicity in mouse allografted with mouse BaF3 cells harbouring KIF5B-RET G810R mutant assessed as mortality at 10 to 30 mg/kg BID measured upto 14 days; assay type: organism-based; details: in vivo, 336 h, dose 10-30 mg/kg, time < 14 day
[23] = Cmax in male Sprague-Dawley rat at 5 mg/kg, IG; assay type: ADME, organism-based; details: in vivo, po
[24] = target: Tyrosine-protein kinase JAK2 (Homo sapiens, UniProt O60674); assay: Inhibition of JAK2 (unknown origin) by FRET-based Z-Lyte kinase assay
[25] = target: Fibroblast growth factor receptor 4 (Homo sapiens, UniProt P22455); assay: Inhibition of FGFR4 (unknown origin) by FRET-based Z-Lyte kinase assay
[26] = Toxicity in mouse allografted with mouse BaF3 cells harbouring KIF5B-RET G810R mutant assessed as drug tolerance at 10 to 30 mg/kg BID measured upto 14 days; assay type: organism-based; details: in vivo, 336 h, dose 10-30 mg/kg, time < 14 day
[27] = target: Proto-oncogene tyrosine-protein kinase receptor Ret (Homo sapiens, UniProt P07949, V804M); assay: Inhibition of RET V804M mutant (unknown origin) by FRET-based ZLyte kinase assay
[28] = AUC (0 to infinity) in male Sprague-Dawley rat at 5 mg/kg, IG; assay type: ADME, organism-based; details: in vivo, po
[29] = target: Vascular endothelial growth factor receptor 3 (Homo sapiens, UniProt P35916); assay: Inhibition of FLT4 (unknown origin) by FRET-based Z-Lyte kinase assay
[30] = target: Proto-oncogene tyrosine-protein kinase receptor Ret (Homo sapiens, UniProt P07949, G810S); assay: Inhibition of RET G810S mutant (unknown origin) by FRET-based ZLyte kinase assay
[31] = Half life in male Sprague-Dawley rat at 1 mg/kg, iv; assay type: ADME, organism-based; details: in vivo
[32] = target: Proto-oncogene tyrosine-protein kinase receptor Ret (Homo sapiens, UniProt P07949, G810R); assay: Inhibition of RET G810R mutant (unknown origin) by FRET-based ZLyte kinase assay

Vascular endothelial growth factor receptor 3, sequence (P35916 whole entry): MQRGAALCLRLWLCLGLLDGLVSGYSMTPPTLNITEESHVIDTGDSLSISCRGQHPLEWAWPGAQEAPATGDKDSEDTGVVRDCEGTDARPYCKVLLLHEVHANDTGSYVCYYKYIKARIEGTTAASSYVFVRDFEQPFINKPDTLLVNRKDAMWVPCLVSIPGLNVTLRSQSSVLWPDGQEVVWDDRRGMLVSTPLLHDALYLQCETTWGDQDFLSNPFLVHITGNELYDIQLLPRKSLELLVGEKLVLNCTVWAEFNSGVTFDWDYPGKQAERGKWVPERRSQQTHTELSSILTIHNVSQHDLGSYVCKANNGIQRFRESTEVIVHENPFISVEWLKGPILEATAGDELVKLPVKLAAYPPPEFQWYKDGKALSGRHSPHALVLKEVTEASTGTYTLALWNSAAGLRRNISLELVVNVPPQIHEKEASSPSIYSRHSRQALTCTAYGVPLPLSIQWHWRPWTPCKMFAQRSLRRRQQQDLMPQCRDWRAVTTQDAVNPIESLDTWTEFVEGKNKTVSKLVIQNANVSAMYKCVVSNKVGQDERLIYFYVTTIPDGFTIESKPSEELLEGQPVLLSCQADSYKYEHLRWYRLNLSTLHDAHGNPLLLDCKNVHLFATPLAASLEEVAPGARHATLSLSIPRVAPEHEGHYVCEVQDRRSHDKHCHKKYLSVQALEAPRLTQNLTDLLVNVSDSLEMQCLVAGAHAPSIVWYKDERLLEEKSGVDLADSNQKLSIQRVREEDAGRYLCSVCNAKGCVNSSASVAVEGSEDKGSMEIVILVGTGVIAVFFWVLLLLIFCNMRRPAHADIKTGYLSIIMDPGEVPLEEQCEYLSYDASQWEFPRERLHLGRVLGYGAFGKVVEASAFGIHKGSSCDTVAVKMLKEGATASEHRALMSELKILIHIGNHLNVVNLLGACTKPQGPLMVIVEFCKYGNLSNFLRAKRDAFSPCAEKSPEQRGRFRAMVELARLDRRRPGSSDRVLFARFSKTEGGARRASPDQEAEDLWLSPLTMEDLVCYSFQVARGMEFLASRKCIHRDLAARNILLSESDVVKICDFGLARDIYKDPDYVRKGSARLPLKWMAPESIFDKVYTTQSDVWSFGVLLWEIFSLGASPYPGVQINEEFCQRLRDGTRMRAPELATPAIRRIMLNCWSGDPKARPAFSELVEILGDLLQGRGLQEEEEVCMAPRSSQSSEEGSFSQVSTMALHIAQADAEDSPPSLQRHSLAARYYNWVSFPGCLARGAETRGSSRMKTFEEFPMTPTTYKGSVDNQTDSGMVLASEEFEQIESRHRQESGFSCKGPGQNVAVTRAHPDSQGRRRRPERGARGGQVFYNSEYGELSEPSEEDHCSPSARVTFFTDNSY
Proto-oncogene tyrosine-protein kinase receptor Ret (Homo sapiens, UniProt P07949, G810C), sequence (P07949 29-1114 G810C limits assumed): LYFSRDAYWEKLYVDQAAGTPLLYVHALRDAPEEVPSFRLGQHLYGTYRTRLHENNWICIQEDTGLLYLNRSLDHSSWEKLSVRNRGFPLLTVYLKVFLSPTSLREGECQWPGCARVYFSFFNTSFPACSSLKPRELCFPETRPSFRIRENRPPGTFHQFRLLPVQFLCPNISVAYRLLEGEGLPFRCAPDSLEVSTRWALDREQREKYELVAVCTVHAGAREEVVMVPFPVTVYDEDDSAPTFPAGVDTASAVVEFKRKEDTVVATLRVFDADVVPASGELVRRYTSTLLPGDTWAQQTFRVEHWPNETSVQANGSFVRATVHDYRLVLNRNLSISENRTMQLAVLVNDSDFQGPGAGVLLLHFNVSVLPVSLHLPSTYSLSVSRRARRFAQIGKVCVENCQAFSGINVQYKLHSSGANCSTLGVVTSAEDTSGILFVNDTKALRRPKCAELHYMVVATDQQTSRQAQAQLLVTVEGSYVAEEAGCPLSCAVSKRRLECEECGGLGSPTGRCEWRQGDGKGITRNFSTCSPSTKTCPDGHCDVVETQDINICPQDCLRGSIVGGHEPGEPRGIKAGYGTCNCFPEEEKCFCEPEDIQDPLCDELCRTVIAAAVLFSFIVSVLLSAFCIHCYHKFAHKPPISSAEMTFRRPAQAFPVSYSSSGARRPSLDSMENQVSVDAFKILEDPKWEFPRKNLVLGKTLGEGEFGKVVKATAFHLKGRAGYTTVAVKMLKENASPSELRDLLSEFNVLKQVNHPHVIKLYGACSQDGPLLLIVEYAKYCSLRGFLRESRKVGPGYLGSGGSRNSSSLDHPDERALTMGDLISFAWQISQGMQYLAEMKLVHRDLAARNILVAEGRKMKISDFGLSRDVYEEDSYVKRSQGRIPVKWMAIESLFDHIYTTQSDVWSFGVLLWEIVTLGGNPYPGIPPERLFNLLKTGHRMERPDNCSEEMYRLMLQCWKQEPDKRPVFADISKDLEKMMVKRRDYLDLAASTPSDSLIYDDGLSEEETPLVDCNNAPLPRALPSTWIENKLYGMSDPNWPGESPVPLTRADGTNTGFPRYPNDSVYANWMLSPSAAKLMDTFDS
Proto-oncogene tyrosine-protein kinase receptor Ret (Homo sapiens, UniProt P07949, V804L), sequence (P07949 29-1114 V804L limits assumed): as the sequence (P07949 29-1114 G810C limits assumed) above, with V776L, C782G counted along it
Proto-oncogene tyrosine-protein kinase receptor Ret (Homo sapiens, UniProt P07949, M918T), sequence (P07949 29-1114 M918T limits assumed): as the sequence (P07949 29-1114 G810C limits assumed) above, with C782G, M890T counted along it

COc1ccc(CN2C3CC2CN(c2ccc(-c4nc(-c5cnn(C)c5)cc5ncccc45)cn2)C3)cc1C#N
clearance [1]: 40 mL/min/kg | bioavailability [2]: 30.4% | AUC(0-inf) [3]: 451 ng·h/mL | IC50 [4]: 7.1 nM | half-life [5]: 4.6 h | Activity [6]: Non-Toxic | IC50 [7]: 34.9 nM | Vz [8]: 48.1 L/kg | IC50 [9]: 0.4 nM | Activity [10]: Non-Toxic | Tmax [11]: 1.6 h | IC50 [12]: 3.2 nM | Activity [13]: Non-Toxic | CL/F [14]: 122 mL/min/kg | IC50 [15]: 334 nM | Activity [16]: Non-Toxic | Cmax [17]: 265 ng/mL | IC50 [18]: 0.2 nM | Vd [19]: 17.2 L/kg | IC50 [20]: 27.3 nM | IC50 [21]: 52.7 nM | Activity [22]: Non-Toxic | Cmax [23]: 140 ng/mL | IC50 [24]: 2650 nM | IC50 [25]: 113 nM | Activity [26]: Non-Toxic | IC50 [27]: 1.8 nM | AUC(0-inf) [28]: 686 ng·h/mL | IC50 [29]: 5.1 nM | IC50 [30]: 5.7 nM | half-life [31]: 5 h | IC50 [32]: 8.3 nM
